Assay results taken from patent US20220211606A1, “LIQUID COMPOSITION FOR INFLUENCING THE MICROBIOTA ON A SUBJECT'S SKIN COMPRISING CHITOSAN” (Medoderm GmbH, priority 2019, published 2022).

Columns and labels:
Staphylococcus aureus [1] = assay: Microbiome agar matrix test, surface pathogen; type: cell-based; details: 20 μl on agar surface; 37° C. over night; inoculum 2.0×10^6 CFU
Procedure: For the present experiment, the above microbiome organisms are seeded out on an agar plate. Afterwards the organisms are embedded in a special microbiome agar matrix to simulate the epidermis layers. […] In the next step the test formulation is applied onto small areas on the surface and the test setup is incubated at 37° C. over night. After incubation, growth of the matrix-embedded microbiome organisms and superficial Staphylococcus aureus is used for the assessment of an influence of the test formulation on the microbiome organisms. […] If the applied product also causes a growth inhibition of the microbiome organisms, the product is assessed to have negative influence on the human microbiome. A disinfectant agent (isopropanol:water 70:30) is used as […] to inhibit growth of the pathogen as well as the microbiome organisms. Buffer solution (used for dilution, if applied; 0.9% (w/w) NaCl in water) is used as a negative control. The sample volume of test formulation is 20 μl. The inoculum microbiome contains 2.0×10^6 CFU (colony forming units). The inoculum pathogen was set at 2.0×10^6 CFU.

Staphylococcus aureus [2] = assay: Repopulation of disinfected human skin (Rodac contact plates), pathogen; type: in vivo; details: upper arm disinfected with 70% isopropanol; 0, 1 h, 2 h, 4 h, 6 h; 100 μl on approx. 50 cm^2
[3] = test system: endogenous skin microflora; assay: Repopulation of disinfected human skin after contact with worn clothing (Rodac contact plates); type: in vivo; details: after 6 h test period, 10 minutes contact with worn clothing, sampled 1 h after removal
Procedure: The test germ corresponded to endogenous skin microflora. […] The sample size was approx. 50 cm^2 skin surface area and the sample volume 100 μl. Contact time was 0, 1 h, 2 h, 4 h, 6 h, after contact and 1 h after contact.
Rodac contact plates were used for sampling of microorganisms from human skin (upper arm) before and after treatment. The upper arm region was chosen to prevent contamination by touching and clothing. Disinfection was performed with 70% isopropanol.
After the 6 h test period, the test areas were exposed to worn clothing for 10 minutes, resulting in a typical transfer of microorganism from clothing to the skin surface (time point directly after contact). 1 h after removal of clothing the bacteria were collected from the test areas aby Rodac contact plates.

CC(C)O [Disinfection, isopropanol]
growth of superficial Staphylococcus aureus (Staphylococcus aureus [1]): neither growth on the surface | Staphylococcus aureus on the test area (Staphylococcus aureus [2]): only found on the “Disinfection” test area | microorganisms collected 1 h after exposure to worn clothing [3]: also showed pathogenic organisms (gram-negative bacteria=big colonies)
